Measured values from the supplement of paper PMC7695840.
Values joined by “and” are separate entries in the source; they are usually repeats but may differ in a detail not shown here. Equal values may be shown once. Where a name gives a salt, the structure may show the parent alone.

Legend:
[1] = system: Staphylococcus aureus MW2 (mecA+); assay: IC50 (growth, competition assay); conditions: cefoxitin: subinhibitory
In short: (§1)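 Pre-induced, 1:1-mixed fluorescent S. aureus MW2 mecA+ and ΔmecA strains were grown 20 h at 37 °C, 90% humidity, unshaken, in LB with a daily-set subinhibitory cefoxitin dose, in 1536-well plates. Compounds were given on five- or nine-point 2-fold gradients, in two dye-swapped replicates. DsRed (540/590) and GFP (485/520) were scaled per plate between single-strain control medians, with No Treatment then set to 0.5. Per-strain IC50 was the dose halving the No Treatment signal, or the maximal signal.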

[2] = system: Staphylococcus aureus MW2 delta-mecA (mecA-); assay: IC50 (growth, competition assay); conditions: cefoxitin: subinhibitory
In short: as §1

Compound | IC50 ([1]; fluorescent label: DsRed) | IC50 ([1]; fluorescent label: GFP) | IC50 ([2]; fluorescent label: DsRed) | IC50 ([2]; fluorescent label: GFP)
Oc1ccc(/C=C/c2ccc(/C=C/c3ccc(O)cc3)c(Br)c2)cc1 [K114] | < 9.85 µM | < 9.85 µM | < 9.85 µM | < 9.85 µM
CC=CC1=C(C(=O)O)N2C(=O)[C@@H](NC(=O)[C@H](N)c3ccc(O)cc3)[C@H]2SC1 [CEFZIL] | 113 µM | 109 µM | < 9.85 µM | < 9.85 µM
CC(C)(C)CC(C)(C)c1ccc(OCCOCC[N+](C)(C)Cc2ccccc2)cc1 [PHEMERIDE] | < 9.85 µM | < 9.85 µM | < 9.85 µM | < 9.85 µM
O=Nc1c(-c2c(O)[nH]c3cc(Br)ccc23)[nH]c2ccccc12 [BIO] | < 9.85 µM | < 9.85 µM | < 9.85 µM | < 9.85 µM
Cc1cnc(-c2ccccc2C(C)C)nc1NCc1ccc(-n2ccnn2)cc1 [ML323] | 35.3 µM | 49.6 µM | < 9.85 µM | < 9.85 µM
O=C1c2ccccc2-c2nc3nonc3nc21 [SMER 3] | 65.9 µM | > 150 µM | 20.4 µM | < 9.85 µM
CO/N=C(\C(=O)N[C@@H]1C(=O)N2C(C(=O)OCOC(=O)C(C)(C)C)=C(/C=C\c3scnc3C)CS[C@H]12)c1csc(N)n1 [SPECTRACEF] | 32.9 µM | 18.7 µM | < 9.85 µM | < 9.85 µM
CO[C@@]12[C@H](COC(N)=O)C3=C(C(=O)C(C)=C(N)C3=O)N1C[C@@H]1N[C@@H]12 [MUTAMYCIN] | < 9.85 µM | < 9.85 µM | < 9.85 µM | < 9.85 µM
C#CCCCCCCCCCCCC(O)CC(O)CO.C=CCCCCCCCCCCCC(O)CC(O)CO (stereo not given) | 16.4 µM | 26.3 µM | < 9.85 µM | < 9.85 µM
CC(C)N(CCC(=O)c1ccc2ccccc2c1)Cc1ccccc1 | < 9.85 µM and 16.8 µM | 14.1 µM and 22.4 µM | < 9.85 µM | < 9.85 µM
CN(C)CCC=C1c2ccccc2CCc2ccccc21 [ELAVIL] | 111 µM | 112 µM | 33.3 µM | 18.5 µM
CCCCCCCCCc1ccc(OCCOCCOCCOCCOCCOCCOCCOCCOCCO)cc1 [CONCEPTROL] | 32 µM | 37 µM | 12.8 µM | < 9.85 µM
COC(=O)CC[C@@H](C)[C@H]1CC[C@H]2[C@@H]3CC[C@@H]4C[C@H](O)CC[C@]4(C)[C@H]3C[C@H](O)[C@]12C [METHYL DEOXYCHOLATE] | 15.4 µM | 26.9 µM | 13.9 µM | 9.91 µM
COc1cc(C)c(C(=O)Oc2cc(C)c(C(=O)O)c(O)c2C)c(OC)c1C [DIFFRACTAIC ACID] | 31 µM | 27.5 µM | 12.8 µM | 15.7 µM
Cc1cc2nc3c(=O)[nH]c(=O)nc-3n(C[C@H](O)[C@H](O)[C@H](O)CO)c2cc1C [Riboflavin (Vitamin B2)] | > 150 µM | > 150 µM | > 150 µM | > 150 µM
CSc1ccc2c(c1)C(N1CCN(C)CC1)Cc1ccccc1S2 (stereo not given) [Methiothepin mesylate] | 56.7 µM | 55.3 µM | 21.3 µM | 19.1 µM
CCn1cc(C(=O)O)c(=O)c2cc3c(cc21)OCO3 [UTIBID] | 15.5 µM | 15 µM | 15.2 µM | < 9.85 µM
CC(=O)OC[C@H]1O[C@@H]([S-])[C@H](OC(C)=O)[C@@H](OC(C)=O)[C@@H]1OC(C)=O.CCP(CC)CC.[Au+] [Auranofin] | < 9.85 µM | < 9.85 µM | < 9.85 µM | < 9.85 µM
CCc1cc(-c2n[nH]c(C)c2-c2ccc3c(c2)OCCO3)c(O)cc1O | 82.7 µM | 102 µM | 15.4 µM | < 9.85 µM
N=C(N)c1ccc(OCCCCCOc2ccc(C(=N)N)cc2)cc1 [Pentamidine HCl] | 37.3 µM | 46.4 µM | 23.5 µM | 16.8 µM
COC(=O)Nc1ccc(-c2nc(N3CCOCC3)c3cnn(C4CCN(Cc5cccnc5)CC4)c3n2)cc1 [WYE-687] | 49.6 µM | 74.8 µM | 15.1 µM | < 9.85 µM
CCOC(=O)CCC(=O)O[C@H]1[C@H](O[C@@H]2[C@@H](C)[C@H](O[C@H]3C[C@@](C)(OC)[C@@H](O)[C@H](C)O3)[C@@H](C)C(=O)O[C@H](CC)[C@@](C)(O)[C@H](O)[C@@H](C)C(=O)[C@H](C)C[C@@]2(C)O)O[C@H](C)C[C@@H]1N(C)C [Erythromycin Ethylsuccinate] | < 9.85 µM | < 9.85 µM | < 9.85 µM | < 9.85 µM
Cc1ccc(C(=O)N(CCCN)[C@@H](c2oc3cc(Cl)ccc3c(=O)c2Cc2ccccc2)C(C)C)cc1 | 30.8 µM | 30.6 µM | 5.93 µM | 7.88 µM
O=C1OCCN1/N=C/c1ccc([N+](=O)[O-])o1 [FUROXONE] | < 9.85 µM | < 9.85 µM | < 9.85 µM | < 9.85 µM
CO[C@H]1/C=C/O[C@@]2(C)Oc3c(C)c(O)c4c(O)c(c5c(nc6cc(C)ccn65)c4c3C2=O)NC(=O)/C(C)=C\C=C\[C@H](C)[C@H](O)[C@@H](C)[C@@H](O)[C@@H](C)[C@H](OC(C)=O)[C@@H]1C [Rifaximin (Xifaxan)] | < 0.498 µM | < 0.498 µM | < 0.498 µM | < 0.498 µM
O=C(O)C1=C(CSc2nnnn2CS(=O)(=O)O)CS[C@@H]2[C@H](NC(=O)[C@H](O)c3ccccc3)C(=O)N12 [MONOCID] | 98.3 µM | 109 µM | < 9.85 µM | < 9.85 µM
CC[C@H]1OC(=O)C[C@@H](O)[C@H](C)[C@@H](O[C@@H]2O[C@H](C)[C@@H](O)[C@H](N(C)C)[C@H]2O)[C@@H](CCN2C[C@H](C)C[C@H](C)C2)C[C@@H](C)C(=O)/C=C/C(C)=C/[C@@H]1CO[C@@H]1O[C@H](C)[C@@H](O)[C@@H](OC)[C@H]1OC [MICOTIL] | 18.8 µM | 28.3 µM | 13.4 µM | < 9.85 µM
Cc1sc2c(c1C)C(c1ccc(Cl)cc1)=N[C@@H](CC(=O)OC(C)(C)C)c1nnc(C)n1-2 [(+)-JQ1] | 96.8 µM | 112 µM | 47 µM | 35.2 µM
Clc1ccc(C(Cn2ccnc2)OCc2ccsc2Cl)c(Cl)c1 (stereo not given) [VAGISTAT] | 29.6 µM | 30.6 µM | 16.9 µM | 15 µM
O=S(=O)(c1ccccc1)N(CC(F)(F)F)c1ccc(C(O)(C(F)(F)F)C(F)(F)F)cc1 | 24.6 µM | 29.6 µM | < 9.85 µM | < 9.85 µM
